Here are results for 20 compounds from patent US9676782B2, “Substituted pyrazolo[1,5-a]pyrazines as negative allosteric modulators of metabotropic glutamate receptor 3” (Vanderbilt University, priority 2014, dated 2017).

Read-outs that look alike come from different tables or passages of the source.

Experiment [1] addresses rat mGlu5 (Rattus norvegicus (Rat), UniProt P31424). The experiment in a line: mGlu5 Ca2+ flux assay. The class given is cell-based. Conditions: for Emax at 30 µM: PAM, amplitude of response at 30 μM test compound as % of maximal response to glutamate, read-out: rat mGlu5 Glu max (%); for Fold selectivity (mGlu3 vs. mGlu5): ratio of rat mGlu5 EC50 or IC50 to rat mGlu3 IC50. The procedure, abridged: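 Transfected cells grown overnight at 37° C/5% CO2, dye-loaded, then 5 min in assay buffer at RT before Ca2+ flux read on FDSS7000. Fluorescence as F/F0 fold over basal, normalized to maximal glutamate response; EC50 from unconstrained 4-parameter logistic fit, triplicates weighted evenly.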

Experiment [2] has as its target rat mGlu3 (Rattus norvegicus (Rat), UniProt P31422). The experiment in a line: mGlu3 Ca2+ flux assay. Type of experiment: cell-based. Conditions: for remaining activity at 30 µM: amplitude of response at 30 μM test compound as % of maximal response to glutamate, read-out: rat mGlu3 Glu max (%). In short, it runs like this: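 Cells expressing rat mGlu3 were grown overnight at 37° C. under 5% CO2, then loaded with dye. After dye removal they received 20 μL of assay buffer and sat 10 minutes at room temperature. Calcium flux was read on a Hamamatsu FDSS7000, and fluorescence was expressed as fold over basal and normalized to the maximal glutamate response.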

[3] abbreviates: read-out: rat mGlu5 EC50 or IC50.
Where [4] appears, read: NAM potency, decrease of glutamate EC80 response, >30,000 = no measurable activity, >10,000 = no plateau, read-out: rat mGlu3 IC50.
Setting [5] is: Table 2 compounds with X = O, response at 30 μM compound as percentage of maximal glutamate response.

rat mGlu5, sequence (P31424 21-1203): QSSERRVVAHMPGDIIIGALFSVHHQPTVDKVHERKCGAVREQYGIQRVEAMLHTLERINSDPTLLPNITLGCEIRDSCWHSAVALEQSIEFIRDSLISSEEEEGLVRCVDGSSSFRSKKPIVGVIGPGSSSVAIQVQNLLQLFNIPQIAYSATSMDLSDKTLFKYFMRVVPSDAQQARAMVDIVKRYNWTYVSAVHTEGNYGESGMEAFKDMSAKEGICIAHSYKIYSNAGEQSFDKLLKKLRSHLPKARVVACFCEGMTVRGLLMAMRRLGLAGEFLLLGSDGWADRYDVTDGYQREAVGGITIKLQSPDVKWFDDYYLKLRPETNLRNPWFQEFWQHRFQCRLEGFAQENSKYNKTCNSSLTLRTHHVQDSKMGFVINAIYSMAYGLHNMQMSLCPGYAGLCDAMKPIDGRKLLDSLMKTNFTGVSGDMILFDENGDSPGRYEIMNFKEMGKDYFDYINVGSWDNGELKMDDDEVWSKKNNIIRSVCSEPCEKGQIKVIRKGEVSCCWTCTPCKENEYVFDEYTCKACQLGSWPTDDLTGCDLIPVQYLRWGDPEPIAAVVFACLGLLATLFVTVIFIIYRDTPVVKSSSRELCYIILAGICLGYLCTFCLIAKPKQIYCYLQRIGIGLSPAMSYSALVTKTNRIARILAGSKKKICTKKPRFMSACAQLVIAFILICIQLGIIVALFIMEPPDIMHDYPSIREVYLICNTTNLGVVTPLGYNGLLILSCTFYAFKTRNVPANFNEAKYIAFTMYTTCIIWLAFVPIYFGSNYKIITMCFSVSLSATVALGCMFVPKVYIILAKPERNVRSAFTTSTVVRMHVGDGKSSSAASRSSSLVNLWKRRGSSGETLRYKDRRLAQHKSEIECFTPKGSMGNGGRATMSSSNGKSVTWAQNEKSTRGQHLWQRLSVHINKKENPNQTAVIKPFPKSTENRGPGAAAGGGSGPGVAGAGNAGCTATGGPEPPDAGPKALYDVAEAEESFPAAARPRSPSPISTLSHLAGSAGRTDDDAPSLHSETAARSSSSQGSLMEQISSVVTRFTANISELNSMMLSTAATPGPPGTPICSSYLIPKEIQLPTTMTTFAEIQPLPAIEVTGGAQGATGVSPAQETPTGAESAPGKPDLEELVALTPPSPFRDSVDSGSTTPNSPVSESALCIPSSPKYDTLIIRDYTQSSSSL
rat mGlu3, sequence (P31422 23-879): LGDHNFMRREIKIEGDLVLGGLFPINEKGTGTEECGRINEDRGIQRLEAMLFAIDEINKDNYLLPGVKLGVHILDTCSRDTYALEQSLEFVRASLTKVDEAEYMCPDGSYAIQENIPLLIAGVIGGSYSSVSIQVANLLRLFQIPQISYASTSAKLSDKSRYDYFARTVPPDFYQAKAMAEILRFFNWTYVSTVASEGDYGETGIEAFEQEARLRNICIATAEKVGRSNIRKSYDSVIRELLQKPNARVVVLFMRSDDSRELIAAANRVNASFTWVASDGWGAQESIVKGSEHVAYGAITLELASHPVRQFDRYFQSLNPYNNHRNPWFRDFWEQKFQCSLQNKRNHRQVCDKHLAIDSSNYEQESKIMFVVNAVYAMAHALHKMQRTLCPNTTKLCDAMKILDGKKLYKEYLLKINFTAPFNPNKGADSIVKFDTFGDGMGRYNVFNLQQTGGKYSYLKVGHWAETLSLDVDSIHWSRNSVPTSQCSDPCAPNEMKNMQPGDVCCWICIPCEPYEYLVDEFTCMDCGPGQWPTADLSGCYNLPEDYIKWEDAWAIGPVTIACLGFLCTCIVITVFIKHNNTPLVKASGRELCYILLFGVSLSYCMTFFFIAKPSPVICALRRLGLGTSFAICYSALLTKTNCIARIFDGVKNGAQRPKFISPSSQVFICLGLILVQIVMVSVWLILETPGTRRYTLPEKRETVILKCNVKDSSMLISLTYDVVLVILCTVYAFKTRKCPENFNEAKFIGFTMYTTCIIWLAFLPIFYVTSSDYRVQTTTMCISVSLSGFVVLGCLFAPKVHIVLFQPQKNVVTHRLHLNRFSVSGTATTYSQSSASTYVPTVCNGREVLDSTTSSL

For `O=C1c2cc(CNc3ccc(F)c(F)c3)nn2CCN1c1ccc(F)cc1` [Compound 31, 2-(((3,4-difluorophenyl)amino)methyl)-5-(4-fluorophenyl)-6,7-dihydropyrazolo[1,5-a]pyrazin-4(5H)-one], in experiment [1], the Emax at 30 µM was determined as 75.8% and the “Fold selectivity (mGlu3 vs. mGlu5)” value is 5.37. In addition, the EC50 in experiment [1] (setting [3]) was determined as 2480 nM. Also, the IC50 in experiment [2] (setting [4]) was determined as 462 nM. Also, in experiment [2], the remaining activity at 30 µM was determined as 2.02%.
For the compound `Cc1cccc(NCc2cc3n(n2)CCN(c2ccc(F)cc2)C3=O)n1` [Compound 157, 5-(4-fluorophenyl)-2-(((6-methylpyridin-2-yl)amino)methyl)-6,7-dihydropyrazolo[1,5-a]pyrazin-4(5H)-one], the “Fold selectivity (mGlu3 vs. mGlu5)” value in experiment [1] is given as over 9.3. Besides, the EC50 in experiment [1] (setting [3]) was over 30000 nM. The IC50 in experiment [2] (setting [4]) is 3210 nM. For the same compound, in experiment [2], the remaining activity at 30 µM is -0.19%.
Consider `COc1ccc(N(C)Cc2cc3n(n2)CCN(c2cccc(F)c2)C3=O)cc1` [Compound 101, 5-(3-fluorophenyl)-2-(((4-methoxyphenyl)(methyl)amino)methyl)-6,7-dihydropyrazolo[1,5-a]pyrazin-4(5H)-one], for which the “Fold selectivity (mGlu3 vs. mGlu5)” value in experiment [1] was over 38. Also, the EC50 in experiment [1] (setting [3]) was over 30000 nM. In experiment [2] (setting [4]), the IC50 was 783 nM. In experiment [2], the remaining activity at 30 µM was found to be 1.57%.
As to `COc1ccc(N(C)Cc2cc3n(n2)CCN(c2ccc(Cl)cn2)C3=O)cc1` [Compound 124, 5-(5-chloropyridin-2-yl)-2-(((4-methoxyphenyl)(methyl)amino)methyl)-6,7-dihydropyrazolo[1,5-a]pyrazin-4(5H)-one], the “Fold selectivity (mGlu3 vs. mGlu5)” value in experiment [1] is over 32. Further, the EC50 in experiment [1] (setting [3]) was over 30000 nM. The IC50 in experiment [2] (setting [4]) is 917 nM. Besides, the remaining activity at 30 µM in experiment [2] came out at 1.64%.
`Cc1cccc(NCc2cc3n(n2)CCN(c2ccc(F)cc2)C3=O)c1` [Compound 8, 5-(4-fluorophenyl)-2-((m-tolylamino)methyl)-6,7-dihydropyrazolo[1,5-a]pyrazin-4(5H)-one]: in experiment [1], the Emax at 30 µM was 79.4% and the “Fold selectivity (mGlu3 vs. mGlu5)” value is on record as 4.41. The EC50 in experiment [1] (setting [3]) stood at 5960 nM. Further, the IC50 in experiment [2] (setting [4]) is 1350 nM. Further, the remaining activity at 30 µM in experiment [2] came to 2.85%.
With `C[C@@H]1CN(c2ccc(F)cc2)C(=O)c2cc(CNc3ccc(F)cc3F)nn21` [Compound 75, (R)-2-(((2,4-difluorophenyl)amino)methyl)-5-(4-fluorophenyl)-7-methyl-6,7-dihydropyrazolo[1,5-a]pyrazin-4(5H)-one], in experiment [1], the Emax at 30 µM was 85.6% and the “Fold selectivity (mGlu3 vs. mGlu5)” value came to 7.56. Besides, in experiment [1] (setting [3]), the EC50 turned out to be 5830 nM. The half-maximal inhibitory concentration (IC50) in experiment [2] (setting [4]) was determined as 771 nM. Besides, the remaining activity at 30 µM in experiment [2] was 2.66%.
As to `N#Cc1cccc(NCc2cc3n(n2)CCN(c2ccc(F)cc2)C3=O)c1` [Compound 11, 3-(((5-(4-fluorophenyl)-4-oxo-4,5,6,7-tetrahydropyrazolo[1,5-a]pyrazin-2-yl)methyl)amino)benzonitrile], the “Fold selectivity (mGlu3 vs. mGlu5)” value in experiment [1] is over 24. In experiment [1] (setting [3]), the EC50 was over 30000 nM. Further, the 50% inhibitory concentration (IC50) in experiment [2] (setting [4]) is 1250 nM. The remaining activity at 30 µM in experiment [2] was 1.48%.
Take `C[C@H]1CN(c2ccc(F)cc2)C(=O)c2cc(CNc3ccc(CC#N)cc3)nn21` [Compound 67, (S)-2-(4-(((5-(4-fluorophenyl)-7-methyl-4-oxo-4,5,6,7-tetrahydropyrazolo[1,5-a]pyrazin-2-yl)methyl)amino)phenyl)acetonitrile]: the “Fold selectivity (mGlu3 vs. mGlu5)” value in experiment [1] is over 11. Moreover, the EC50 in experiment [1] (setting [3]) is over 30000 nM. Moreover, in experiment [2] (setting [4]), the IC50 came to 2560 nM. Moreover, in experiment [2], the remaining activity at 30 µM came to 1.96%.
`Cc1ccc(N2CCn3nc(CNc4ccc(OC(F)F)cc4F)cc3C2=O)nc1` [Compound 144, 2-(((4-(difluoromethoxy)-2-fluorophenyl)amino)methyl)-5-(5-methylpyridin-2-yl)-6,7-dihydropyrazolo[1,5-a]pyrazin-4(5H)-one]: the “Fold selectivity (mGlu3 vs. mGlu5)” value in experiment [1] is reported as over 17. Also, the EC50 in experiment [1] (setting [3]) was over 30000 nM. Moreover, the IC50 in experiment [2] (setting [4]) is 1740 nM. Besides, in experiment [2], the remaining activity at 30 µM was 5.68%.
As for `Cc1cnc(N2CCn3nc(CNc4ccc(OC(F)F)cc4F)cc3C2=O)s1` [Compound 137, 2-(((4-(difluoromethoxy)-2-fluorophenyl)amino)methyl)-5-(5-methylthiazol-2-yl)-6,7-dihydropyrazolo[1,5-a]pyrazin-4(5H)-one], the EC50 in experiment [1] (setting [3]) is over 30000 nM. Further, in experiment [2] (read-out: rat mGlu3 IC50), the IC50 was over 30000 nM.
Consider `C[C@H]1CN(c2ccc(F)cc2)C(=O)c2cc(CNc3ccc(F)cc3F)nn21` [Compound 76, (S)-2-(((2,4-difluorophenyl)amino)methyl)-5-(4-fluorophenyl)-7-methyl-6,7-dihydropyrazolo[1,5-a]pyrazin-4(5H)-one], for which, in experiment [1], the Emax at 30 µM came out at 86.1% and the “Fold selectivity (mGlu3 vs. mGlu5)” value stood at 7.00. The EC50 in experiment [1] (setting [3]) stood at 8190 nM. Further, the IC50 in experiment [2] (setting [4]) worked out at 1170 nM. In experiment [2], the remaining activity at 30 µM was determined as 0.35%.
As for `COc1ccc(N(C)Cc2cc3n(n2)CCN(c2c(F)cc(F)cc2F)C3=O)cc1` [Compound 102, 2-(((4-methoxyphenyl)(methyl)amino)methyl)-5-(2,4,6-trifluorophenyl)-6,7-dihydropyrazolo[1,5-a]pyrazin-4(5H)-one], in experiment [1], the “Fold selectivity (mGlu3 vs. mGlu5)” value is listed as over 37. The EC50 in experiment [1] (setting [3]) is over 30000 nM. For the same compound, in experiment [2] (setting [4]), the IC50 worked out at 801 nM. Moreover, the remaining activity at 30 µM in experiment [2] was 1.68%.
In the case of `C[C@H]1CN(c2ccc(F)cc2)C(=O)c2cc(CNc3cccc(OC(F)F)c3)nn21` [Compound 55, (S)-2-(((3-(difluoromethoxy)phenyl)amino)methyl)-5-(4-fluorophenyl)-7-methyl-6,7-dihydropyrazolo[1,5-a]pyrazin-4(5H)-one], in experiment [1], the Emax at 30 µM came out at 28.8% and the “Fold selectivity (mGlu3 vs. mGlu5)” value is listed as over 5.9. Moreover, in experiment [1] (setting [3]), the EC50 is over 10000 nM. In experiment [2] (setting [4]), the half-maximal inhibitory concentration (IC50) stood at 1670 nM. In addition, the remaining activity at 30 µM in experiment [2] amounted to 1.85%.
Turning to `O=C1c2cc(COc3cccc(F)c3)nn2CCN1c1ccc(F)cc1` [drawing 31 X = O, reference compound], the EC50 in experiment [1] (Table 2 compounds with X = O, read-out: mGlu5 EC50) was 192 nM. Besides, in experiment [1] (setting [5]), the “mGlu5 Glu max” value is on record as 69%. In addition, the 50% inhibitory concentration (IC50) in experiment [2] (Table 2 compounds with X = O, read-out: mGlu3 IC50) is 132 nM. For the same compound, the “mGlu3 Glu max” value in experiment [2] (setting [5]) was 1%.
On to `CN(Cc1cc2n(n1)CCN(c1ccc(F)cc1)C2=O)c1ccc(C#N)cc1` [Compound 93, 4-(((5-(4-fluorophenyl)-4-oxo-4,5,6,7-tetrahydropyrazolo[1,5-a]pyrazin-2-yl)methyl)(methyl)amino)benzonitrile], for which, in experiment [1], the Emax at 30 µM is 57.2% and the “Fold selectivity (mGlu3 vs. mGlu5)” value is recorded as over 8.8. Also, in experiment [1] (setting [3]), the EC50 was over 10000 nM. In addition, the IC50 in experiment [2] (setting [4]) turned out to be 1130 nM. The remaining activity at 30 µM in experiment [2] stood at 1.47%.
Consider `O=C1c2cc(CNc3ccc(OC(F)F)cc3F)nn2CCN1c1cc(F)cc(F)c1` [Compound 152, 2-(((4-(difluoromethoxy)-2-fluorophenyl)amino)methyl)-5-(3,5-difluorophenyl)-6,7-dihydropyrazolo[1,5-a]pyrazin-4(5H)-one], for which the “Fold selectivity (mGlu3 vs. mGlu5)” value in experiment [1] is recorded as over 28. Moreover, in experiment [1] (setting [3]), the EC50 was over 30000 nM. For the same compound, the IC50 in experiment [2] (setting [4]) came out at 1070 nM. Also, the remaining activity at 30 µM in experiment [2] worked out at 2.23%.
Consider `C[C@@H]1CN(c2ccc(F)cc2)C(=O)c2cc(CNc3cccc(F)c3F)nn21` [Compound 68, (R)-2-(((2,3-difluorophenyl)amino)methyl)-5-(4-fluorophenyl)-7-methyl-6,7-dihydropyrazolo[1,5-a]pyrazin-4(5H)-one], for which, in experiment [1], the Emax at 30 µM stood at 53.2% and the “Fold selectivity (mGlu3 vs. mGlu5)” value is recorded as over 8.1. Also, the EC50 in experiment [1] (setting [3]) was over 10000 nM. Moreover, the IC50 in experiment [2] (setting [4]) turned out to be 1230 nM. For the same compound, the remaining activity at 30 µM in experiment [2] stood at 2.68%.
For `O=C1c2cc(CNc3ncccc3F)nn2CCN1c1ccc(F)cc1` [Compound 165, 5-(4-fluorophenyl)-2-(((3-fluoropyridin-2-yl)amino)methyl)-6,7-dihydropyrazolo[1,5-a]pyrazin-4(5H)-one], in experiment [1], the “Fold selectivity (mGlu3 vs. mGlu5)” value is reported as over 14. Also, the EC50 in experiment [1] (setting [3]) was over 30000 nM. For the same compound, the concentration for half-maximal inhibition (IC50) in experiment [2] (setting [4]) was determined as 2110 nM. In addition, the remaining activity at 30 µM in experiment [2] is 1.66%.
Consider `O=C1c2cc(CNc3ccc(OC(F)F)cc3F)nn2CCN1c1cc(Cl)ccn1` [Compound 139, 5-(4-chloropyridin-2-yl)-2-(((4-(difluoromethoxy)-2-fluorophenyl)amino)methyl)-6,7-dihydropyrazolo[1,5-a]pyrazin-4(5H)-one], for which the “Fold selectivity (mGlu3 vs. mGlu5)” value in experiment [1] is given as over 17. Moreover, the EC50 in experiment [1] (setting [3]) is over 30000 nM. Moreover, in experiment [2] (setting [4]), the IC50 is 1760 nM. Also, the remaining activity at 30 µM in experiment [2] stood at 2.59%.
Regarding `C[C@H]1CN(c2ccc(F)cc2)C(=O)c2cc(CNc3c(F)cccc3F)nn21` [Compound 73, (S)-2-(((2,6-difluorophenyl)amino)methyl)-5-(4-fluorophenyl)-7-methyl-6,7-dihydropyrazolo[1,5-a]pyrazin-4(5H)-one], the Emax at 30 µM in experiment [1] worked out at 63.9%. For the same compound, in experiment [2], the remaining activity at 30 µM is 4.07%.
